In experiment [1] the target is T1, Phosphatidylinositol 4,5-bisphosphate 3-kinase catalytic subunit delta isoform (Homo sapiens, UniProt O00329).
T1 sequence (O00329 whole entry): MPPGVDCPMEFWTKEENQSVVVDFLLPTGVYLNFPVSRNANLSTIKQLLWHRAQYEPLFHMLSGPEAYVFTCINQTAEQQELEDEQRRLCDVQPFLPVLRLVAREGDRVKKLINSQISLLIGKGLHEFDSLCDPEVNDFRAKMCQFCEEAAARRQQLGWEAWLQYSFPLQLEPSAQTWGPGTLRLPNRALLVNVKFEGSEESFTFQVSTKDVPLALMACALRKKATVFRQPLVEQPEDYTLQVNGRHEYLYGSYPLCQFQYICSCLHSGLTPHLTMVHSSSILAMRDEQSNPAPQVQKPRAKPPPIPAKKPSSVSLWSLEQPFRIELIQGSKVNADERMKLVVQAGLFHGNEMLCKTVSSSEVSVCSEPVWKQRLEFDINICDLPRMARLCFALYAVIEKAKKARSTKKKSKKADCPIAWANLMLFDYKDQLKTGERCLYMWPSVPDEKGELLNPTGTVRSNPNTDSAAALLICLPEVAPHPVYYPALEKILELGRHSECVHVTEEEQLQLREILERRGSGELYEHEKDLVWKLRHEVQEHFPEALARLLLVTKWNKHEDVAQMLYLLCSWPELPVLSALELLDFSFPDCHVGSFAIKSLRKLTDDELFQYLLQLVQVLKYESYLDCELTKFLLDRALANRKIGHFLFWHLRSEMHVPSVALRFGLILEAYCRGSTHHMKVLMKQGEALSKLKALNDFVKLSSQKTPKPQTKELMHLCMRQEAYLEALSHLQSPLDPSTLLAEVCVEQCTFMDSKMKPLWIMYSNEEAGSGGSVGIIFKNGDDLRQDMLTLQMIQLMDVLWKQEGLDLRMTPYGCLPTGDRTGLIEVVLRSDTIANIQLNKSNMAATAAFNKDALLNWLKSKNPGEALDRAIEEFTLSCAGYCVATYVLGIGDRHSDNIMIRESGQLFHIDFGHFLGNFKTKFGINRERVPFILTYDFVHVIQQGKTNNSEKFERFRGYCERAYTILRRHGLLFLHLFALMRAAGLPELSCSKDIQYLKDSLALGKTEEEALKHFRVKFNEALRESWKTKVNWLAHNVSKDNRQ
Briefly: Inhibition of PI3Kdelta (unknown origin).

Experiment [2] concerns the target Phosphatidylinositol 4,5-bisphosphate 3-kinase catalytic subunit beta isoform (Homo sapiens, UniProt P42338). Put plainly: Inhibition of PI3Kbeta (unknown origin).
In experiment [3] the target is Phosphatidylinositol 4,5-bisphosphate 3-kinase catalytic subunit alpha isoform (Homo sapiens, UniProt P42336). Briefly: Inhibition of PI3Kalpha (unknown origin).
The species named for experiment [4] is Homo sapiens. Put plainly: Selectivity ratio of IC50 for PI3Kbeta (unknown origin) to IC50 for PI3Kalpha (unknown origin).
The species named for experiment [5] is Homo sapiens. Briefly: Selectivity ratio of IC50 for PI3Kdelta (unknown origin) to IC50 for PI3Kalpha (unknown origin).
Experiment [6] is filed under the species Homo sapiens. Put plainly: Selectivity ratio of IC50 for PI3Kalpha (unknown origin) to IC50 for PI3Kdelta (unknown origin).

Consider 40 compounds from ChEMBL document CHEMBL3132856, “Novel pyrazolo[1,5-a]pyridines as PI3K inhibitors: variation of the central linker group” (Medchemcomm, 2014).

One may read the IC50 as the concentration that gives 50% inhibition. Lower therefore signals inhibition by little substance.

A value given as a limit tells only on which side of the number the result lay.

Chain of Phosphatidylinositol 4,5-bisphosphate 3-kinase catalytic subunit alpha isoform (P42336 whole entry, canonical isoform): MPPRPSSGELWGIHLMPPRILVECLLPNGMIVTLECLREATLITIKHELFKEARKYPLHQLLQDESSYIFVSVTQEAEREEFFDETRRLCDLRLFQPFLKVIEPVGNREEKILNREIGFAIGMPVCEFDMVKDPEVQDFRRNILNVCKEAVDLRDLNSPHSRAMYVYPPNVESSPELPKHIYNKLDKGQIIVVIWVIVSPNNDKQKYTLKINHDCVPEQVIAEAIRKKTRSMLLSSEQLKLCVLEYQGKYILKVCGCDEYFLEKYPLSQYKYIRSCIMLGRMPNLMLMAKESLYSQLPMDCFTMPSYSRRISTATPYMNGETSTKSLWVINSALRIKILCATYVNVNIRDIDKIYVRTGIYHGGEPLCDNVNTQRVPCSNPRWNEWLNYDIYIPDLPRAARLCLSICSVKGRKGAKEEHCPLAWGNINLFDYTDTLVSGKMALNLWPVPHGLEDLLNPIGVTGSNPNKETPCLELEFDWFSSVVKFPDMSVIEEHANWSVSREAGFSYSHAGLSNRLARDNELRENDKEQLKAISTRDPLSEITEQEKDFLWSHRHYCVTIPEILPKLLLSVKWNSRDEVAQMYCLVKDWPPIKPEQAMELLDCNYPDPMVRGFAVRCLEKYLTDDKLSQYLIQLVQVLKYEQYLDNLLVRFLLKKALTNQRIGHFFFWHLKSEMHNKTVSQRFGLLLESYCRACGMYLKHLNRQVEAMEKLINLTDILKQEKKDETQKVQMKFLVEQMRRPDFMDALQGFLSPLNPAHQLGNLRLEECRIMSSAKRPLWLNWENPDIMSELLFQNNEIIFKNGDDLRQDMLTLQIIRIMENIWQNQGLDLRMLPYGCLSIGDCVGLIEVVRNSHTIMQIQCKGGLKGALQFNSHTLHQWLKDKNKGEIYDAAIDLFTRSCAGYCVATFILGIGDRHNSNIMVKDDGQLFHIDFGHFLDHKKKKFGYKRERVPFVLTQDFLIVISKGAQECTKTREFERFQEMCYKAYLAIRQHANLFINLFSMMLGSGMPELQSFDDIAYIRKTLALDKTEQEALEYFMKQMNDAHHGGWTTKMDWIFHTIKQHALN
Chain of Phosphatidylinositol 4,5-bisphosphate 3-kinase catalytic subunit beta isoform (P42338 whole entry, canonical isoform): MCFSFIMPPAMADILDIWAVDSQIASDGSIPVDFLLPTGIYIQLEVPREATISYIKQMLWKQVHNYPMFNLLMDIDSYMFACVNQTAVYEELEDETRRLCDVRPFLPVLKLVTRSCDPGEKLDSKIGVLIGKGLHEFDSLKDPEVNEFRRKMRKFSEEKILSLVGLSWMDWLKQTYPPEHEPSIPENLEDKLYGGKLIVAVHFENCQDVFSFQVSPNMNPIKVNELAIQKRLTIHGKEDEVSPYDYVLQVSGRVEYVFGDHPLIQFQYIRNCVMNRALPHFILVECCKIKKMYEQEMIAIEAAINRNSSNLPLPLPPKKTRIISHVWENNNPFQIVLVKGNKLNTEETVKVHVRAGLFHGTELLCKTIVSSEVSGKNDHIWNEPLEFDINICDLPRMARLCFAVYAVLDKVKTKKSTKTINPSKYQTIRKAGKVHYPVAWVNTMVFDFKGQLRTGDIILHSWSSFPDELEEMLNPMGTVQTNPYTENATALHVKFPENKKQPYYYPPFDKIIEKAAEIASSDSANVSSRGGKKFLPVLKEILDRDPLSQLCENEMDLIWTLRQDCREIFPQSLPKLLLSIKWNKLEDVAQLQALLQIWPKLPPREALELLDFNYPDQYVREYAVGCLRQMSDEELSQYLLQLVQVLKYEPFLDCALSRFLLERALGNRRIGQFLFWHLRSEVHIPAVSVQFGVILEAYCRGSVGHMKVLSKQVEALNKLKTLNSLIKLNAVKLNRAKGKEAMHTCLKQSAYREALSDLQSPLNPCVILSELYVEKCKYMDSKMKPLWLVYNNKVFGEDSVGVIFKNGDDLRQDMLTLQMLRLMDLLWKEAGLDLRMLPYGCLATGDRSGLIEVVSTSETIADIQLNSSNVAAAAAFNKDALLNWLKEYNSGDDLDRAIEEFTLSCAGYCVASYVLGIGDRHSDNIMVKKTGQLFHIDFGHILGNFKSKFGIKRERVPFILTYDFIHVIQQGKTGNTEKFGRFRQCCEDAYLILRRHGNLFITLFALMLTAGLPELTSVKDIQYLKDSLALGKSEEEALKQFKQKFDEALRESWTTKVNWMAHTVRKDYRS

Take `Cc1ccc([N+](=O)[O-])cc1C(=O)N1CCC(c2cnn3ccc(Br)cc23)CC1`: the concentration for half-maximal inhibition (IC50) in experiment [1], in experiment [2] and in experiment [3] was > 1000 nM each time.
For `Cc1ccc([N+](=O)[O-])cc1C(=O)NC1CCN(Cc2cnn3ccc(C#N)cc23)CC1`, the half-maximal inhibitory concentration (IC50) in experiment [1], in experiment [2] and in experiment [3] was > 1000 nM each time.
With `Cc1ccc([N+](=O)[O-])cc1-c1nc(-c2cnn3ccc(Br)cc23)cs1`, the IC50 in experiment [1], in experiment [2] and in experiment [3] was > 1000 nM each time.
With `Cc1ccc([N+](=O)[O-])cc1S(=O)(=O)/N=c1/scc(-c2cnn3ccc(Br)cc23)n1C`, the IC50 in experiment [1], in experiment [2] and in experiment [3] was > 1000 nM each time.
For the compound `Cc1ccc([N+](=O)[O-])cc1S(=O)(=O)N1CCC(c2cnn3ccc(Br)cc23)CC1`, the concentration for half-maximal inhibition (IC50) in experiment [1], in experiment [2] and in experiment [3] was > 1000 nM throughout.
With `Cc1ccc([N+](=O)[O-])cc1S(=O)(=O)NC1CCN(Cc2cnn3ccc(C#N)cc23)CC1`, the 50% inhibitory concentration (IC50) in experiment [1], in experiment [2] and in experiment [3] was > 1000 nM each time.
`Cc1ccc([N+](=O)[O-])cc1S(=O)(=O)N(C)c1nc(-c2cnn3ccc(Br)cc23)cs1`: the IC50 in experiment [1] was 1550 nM; in experiment [2], > 1000 nM; in experiment [3] it was > 1000 nM.
With `O=[N+]([O-])c1cccc([S+]([O-])c2nc(-c3cnn4ccc(Br)cc34)cs2)c1` (centres undefined), the Ratio IC50 in the experiment filed under Homo sapiens [4] was < 10. The figures for the IC50 in experiment [1], in experiment [2] and in experiment [3] were 320 nM, 4420 nM and 740 nM, respectively.
As to `CN(C)CCN(C)c1ccc(C#N)cc1[S+]([O-])c1nc(-c2cnn3ccc(Br)cc23)cs1` (centres undefined), the Ratio IC50 in the experiment listed under Homo sapiens [5] turned out to be 5; in the experiment listed under Homo sapiens [6] it was 16. Besides, the IC50 was found to be 250 nM in experiment [1], 4340 nM in experiment [2] and 4030 nM in experiment [3].
In the case of `Cc1ccc([N+](=O)[O-])cc1S(=O)(=O)N1CCN(Cc2cnn3ccc(C#N)cc23)CC1`, the IC50 in experiment [1], in experiment [2] and in experiment [3] was > 1000 nM in each case.
Regarding `Cc1ccc([N+](=O)[O-])cc1S(=O)(=O)N1CCC(c2cnn3ccc(Br)cc23)C1` (centres undefined), the IC50 in experiment [1] was > 1000 nM; in experiment [2] it was > 1000 nM; in experiment [3] it was 3000 nM.
With `O=[N+]([O-])c1cccc(S(=O)(=O)c2nc(-c3cnn4ccc(Br)cc34)cs2)c1`, the Ratio IC50 in the experiment listed under Homo sapiens [4] is < 10. In experiment [3], half-maximal inhibition (IC50) required 630 nM.
In the case of `Cc1ccc([N+](=O)[O-])cc1S(=O)(=O)N1CCCC(c2cnn3ccc(Br)cc23)C1` (centres undefined), the IC50 in experiment [1] is > 1000 nM; in experiment [2], > 1000 nM; in experiment [3], 590 nM.
On to `Cc1ccc([N+](=O)[O-])cc1S(=O)(=O)N[C@H]1CCN(Cc2cnn3ccc(C#N)cc23)C1`, for which the IC50 in experiment [1], in experiment [2] and in experiment [3] was > 1000 nM each time.
Take `Cc1ccc([N+](=O)[O-])cc1Nc1nc(-c2cnn3ccc(Br)cc23)cs1`: the IC50 in experiment [1], in experiment [2] and in experiment [3] was > 1000 nM in each case.
Turning to `Cc1ccc([N+](=O)[O-])cc1S(=O)(=O)Cc1nc(-c2cnn3ccc(Br)cc23)cs1`, the half-inhibitory concentration (IC50) in experiment [1] is 90 nM; in experiment [2], 140 nM; in experiment [3], 240 nM.
On the same counts, the results for `Cc1ccc([N+](=O)[O-])cc1S(=O)(=O)NC1CN(Cc2cnn3ccc(C#N)cc23)C1` are > 1000 nM, > 1000 nM and > 1000 nM.
On the same counts, the results for `Cc1ccc([N+](=O)[O-])cc1C(=O)N[C@@H]1CCCN(Cc2cnn3ccc(C#N)cc23)C1` are > 1000 nM, > 1000 nM and > 1000 nM.
On the same counts, the results for `N#Cc1cc(S(=O)(=O)c2nc(-c3cnn4ccc(Br)cc34)cs2)ccc1F` are 150 nM, > 1000 nM and 170 nM.
For `Cc1ccc([N+](=O)[O-])cc1S(=O)(=O)C/C=C/c1cnn2ccc(Br)cc12`, the 50% inhibitory concentration (IC50) is 3350 nM in experiment [1], > 1000 nM in experiment [2] and 140 nM in experiment [3].
Take `N#Cc1ccc(F)c(S(=O)(=O)c2nc(-c3cnn4ccc(Br)cc34)cs2)c1`: the IC50 in experiment [1] was 440 nM; in experiment [2] it was > 1000 nM; in experiment [3] it was 720 nM.
On the same counts, the results for `Cc1ccc([N+](=O)[O-])cc1C(=O)N[C@H]1CCN(Cc2cnn3ccc(C#N)cc23)C1` are > 1000 nM, > 1000 nM and > 1000 nM.
For `Cc1ccc([N+](=O)[O-])cc1S(=O)(=O)N[C@@H]1CCCN(Cc2cnn3ccc(C#N)cc23)C1`, the concentration for half-maximal inhibition (IC50) in experiment [1], in experiment [2] and in experiment [3] was > 1000 nM in each case.
Take `N#Cc1cc(S(=O)(=O)c2nc(-c3cnn4ccc(Br)cc34)cs2)ccc1NCCN1CCOCC1`: the Ratio IC50 in the experiment filed under Homo sapiens [6] was 9. Moreover, the IC50 in experiment [1] is 240 nM; in experiment [2], > 1000 nM; in experiment [3], 2130 nM.
With `CN(C)CCN(C)c1ccc(S(=O)(=O)c2nc(-c3cnn4ccc(Br)cc34)cs2)cc1C#N`, in the experiment listed under Homo sapiens [6], the Ratio IC50 is 4. Besides, the IC50 in experiment [1] was 640 nM; in experiment [2] it was > 1000 nM; in experiment [3], 2470 nM.
Regarding `Cc1ccc([N+](=O)[O-])cc1C(=O)N[C@H]1CCCN(Cc2cnn3ccc(C#N)cc23)C1`, the concentration for half-maximal inhibition (IC50) in experiment [1], in experiment [2] and in experiment [3] was > 1000 nM in each case.
Consider `CN(C)CCN(C)c1ccc(C#N)cc1S(=O)(=O)c1nc(-c2cnn3ccc(Br)cc23)cs1`, for which the 50% inhibitory concentration (IC50) is 2000 nM in experiment [1], 3560 nM in experiment [2] and 370 nM in experiment [3].
On the same counts, the results for `Cc1ccc([N+](=O)[O-])cc1C(=O)N[C@@H]1CCN(Cc2cnn3ccc(C#N)cc23)C1` are > 1000 nM, > 1000 nM and > 1000 nM.
For the compound `Cc1ccc([N+](=O)[O-])cc1CSc1nc(-c2cnn3ccc(Br)cc23)cs1`, the half-inhibitory concentration (IC50) in experiment [1], in experiment [2] and in experiment [3] was > 1000 nM throughout.
On to `Cc1ccc([N+](=O)[O-])cc1C(=O)N1CCN(Cc2cnn3ccc(C#N)cc23)CC1`, for which the IC50 in experiment [1], in experiment [2] and in experiment [3] was > 1000 nM in each case.
With `Cc1ccc([N+](=O)[O-])cc1CS(=O)(=O)c1nc(-c2cnn3ccc(Br)cc23)cs1`, the IC50 in experiment [1], in experiment [2] and in experiment [3] was > 1000 nM in each case.
Take `Cc1ccc([N+](=O)[O-])cc1Cc1nc(-c2cnn3ccc(Br)cc23)cs1`: the IC50 in experiment [1], in experiment [2] and in experiment [3] was > 1000 nM each time.
`Cc1ccccc1[S+]([O-])c1nc(-c2cnn3ccc(Br)cc23)cs1` (centres undefined): the half-maximal inhibitory concentration (IC50) in experiment [1] was > 1000 nM; in experiment [2] it was > 1000 nM; in experiment [3] it was 1280 nM.
As to `Cc1ccc([N+](=O)[O-])cc1C(=O)NC1CN(Cc2cnn3ccc(C#N)cc23)C1`, the 50% inhibitory concentration (IC50) in experiment [1], in experiment [2] and in experiment [3] was > 1000 nM in each case.
In the case of `O=[N+]([O-])c1cccc(Sc2nc(-c3cnn4ccc(Br)cc34)cs2)c1`, the concentration for half-maximal inhibition (IC50) in experiment [1], in experiment [2] and in experiment [3] was > 1000 nM in each case.
For the compound `Cc1ccc([N+](=O)[O-])cc1S(=O)(=O)Nc1nc(-c2cnn3ccc(Br)cc23)cs1`, the values for the IC50 in experiment [1], in experiment [2] and in experiment [3] were > 1000 nM, > 1000 nM and 1260 nM, respectively.
For `Cc1ccc([N+](=O)[O-])cc1S(=O)(=O)N1CCCN(Cc2cnn3ccc(C#N)cc23)CC1`, the IC50 in experiment [1], in experiment [2] and in experiment [3] was > 1000 nM throughout.
For `Cc1ccc([N+](=O)[O-])cc1S(=O)(=O)N[C@H]1CCCN(Cc2cnn3ccc(C#N)cc23)C1`, the IC50 in experiment [1], in experiment [2] and in experiment [3] was > 1000 nM in each case.
`Cc1ccc([N+](=O)[O-])cc1S(=O)(=O)N[C@@H]1CCN(Cc2cnn3ccc(C#N)cc23)C1`: the IC50 in experiment [1], in experiment [2] and in experiment [3] was > 1000 nM each time.
For the compound `N#Cc1ccc(F)c([S+]([O-])c2nc(-c3cnn4ccc(Br)cc34)cs2)c1` (centres undefined), the IC50 is 200 nM in experiment [1], > 1000 nM in experiment [2] and 300 nM in experiment [3].
